# Reference: patent US5795859A (priority 1991, dated 1998)
# Ends that are not written are not given here.
# Experiments:
# [1] = tested on: D-galactosamine sensitized mice; assay: TNF toxicity in D-galactosamine sensitized mice; format: in vivo; conditions: 16 mg D-galactosamine and 2 μg human recombinant TNF i.p., peptide s.c.; survival up to 48 hours
# Method: The mice were then injected subcutaneously with either test peptide, phosphate buffered saline or neutralizing anti-TN? monoclonal antibody 47.
# mice = assay: In vivo TNF toxicity, blood glucose and appearance; conditions: 10 μg of Peptide 2, 200 μg recombinant human TNF
# Method: Appearance parameters which were evaluated included ruffling of fur, touch sensitivity, presence of eye exudate, light sensitivity and diarrhoea.
# Nonfasting blood glucose levels were determined on a Beckman Glucose Analyzer 2 (Beckman Instruments) or on a Exectech blood glucose sensor (Clifford Hallam Pty. Ltd).
# [2] = tested on: Meth A ascites tumour-bearing mice; assay: LPS lethality in Meth A ascites tumour-bearing mice; format: in vivo; conditions: 500 μg E.coli LPS, peptide s.c.; survival up to 64 hours; * heightened activity
# Method: In LPS experiments polymyxin B, an LPS inhibitor, replaced MAb 47 as a positive control. The number of animals surviving was assessed at intervals up to 64 hours after LPS challenge.
# [3] = tested on: bovine aortic endothelial cells
# Method: Endothelial cell procoagulant activity (PCA) induction by TNFα was determined using bovine aortic endothelial cells (BAE) according to the procedure of Bevilacqua et al., 1986 PNAS 83, 4522 with the following modifications: BAE cells were propagated in McCoys 5A medium supplemented with 10% FCS, penicillin, streptomycin and L-gutamine in standard tissue culture flasks and 24-well dishes. TNFα treatment of culture (3 μg/ml) was for 4 hours at 37° C. in the presence of growth medium after which the cells were washed and scrape-harvested before being frozen, thawed and sonicated. Total cellular PCA was determined in a standard one-stage clotting assay using normal donor platelet poor plasma to which 100 μl of CaCl2 and 100 μl of cell lystate was added. Statistical significance was determined by unpaired t-test.
# Method for human neutrophils: In these experiments, neutrophils were prepared from blood of healthy volunteers by the rapid single step method (Kowanko and Ferrante 1987 Immunol 62, 149). To 100 μl of 5×10^6 neutrophils/ml was added 100 μl of either 0, 10, 100 μg of peptide/ml and 800 μl of lucigenin (100 μg). The tubes were immediately placed into a light proof chamber (with a 37° C. water jacket incubator) of a luminometer (model 1250; LKB Instruments, Wallac, Turku, Finaldn). The resultant light output (in millivolts was recorded). The results are recorded as the maximal rate of chemiluminescence production.
Substance,IN VIVO TNF TOXICITY D-GAL [1],TNF toxicity as indicated by blood glucose changes (mice),IN VIVO LPS TOXICITY METH A [2],induction of procoagulant activity [3],activation of the respiratory burst (human neutrophils)
ARG THR PRO SER ASP LYS VAL PRO ALA HIS VAL VAL ALA (RTPSDKVPAHVVA; printed: ARG THR PRO SER ASP LYS VAL PRO ALA HIS VAL VAL ALA) [Peptide 2],+ (each group contains 10 animals: scored positive if 6 or more survive),abrogated TNF toxicity,–,–,–
"Ac-PSDKPVA-NH2 [Peptide 29, Ac PRO SER ASP LYS PRO VAL ALA NH2]",–,–,+ (10 animals per group scored positive if 7 or more survive),–,–
"Ac-RTPSDKPVAHV-NH2 [Peptide 30, Ac ARG THR PRO SER ASP LYS PRO VAL ALA HIS VAL NH2]",+ (each group contains 10 animals: scored positive if 6 or more survive),–,+ (10 animals per group scored positive if 7 or more survive),–,–
"VRSSSRTPSDKPVAHVVA [Peptide 1, VAL ARG SER SER SER ARG THR PRO SER ASP LYS PRO VAL ALA HIS VAL VAL ALA]",–,–,–,failed to either activate the respiratory burst of human neutrophils (Table 5) or to induce procoagulant activity,failed to either activate the respiratory burst
